In patent US20160206583A1, “AMINO ACID TREATMENT OF SEIZURES” (THE JOHNS HOPKINS UNIVERSITY, priority 2013, published 2016):

Legend:
[1] = tested on: pentylenetetrazol-induced seizures; settings: Dufour et al., 1999, cited from earlier work
[2] = tested on: kainic acid-induced seizures; assay: Kainic acid status epilepticus test; format: in vivo, mice
Experimental: Male NIH Swiss mice (NCI, Frederick, Md., U.S.A.) aged 3-4 weeks were acclimatized to the animal care facility for 1-5 days and housed four per cage. All mice were fed unrestricted normal rodent chow (Teklad Global 2018SX, Madison, Wis., U.S.A.). Only in experiments lasting 2 weeks, mice were fasted overnight before the D-leucine was administered in drinking water.
[…] Louis, Mo., U.S.A.) or given D-leucine in drinking water (1.5% w/v) for 13 days after an initial overnight fast. […] Louis, Mo., U.S.A.).
Each mouse was tested for seizures only once. Personnel performing seizure testing and assessments were blinded to treatment group assignments. Seizure tests were performed 3 h following a single dose of D-leucine, 15-25 min after the administration of kainic acid, or after 13 days of D-leucine exposure in drinking water.
Kainic acid was injected intraperitoneally (22.5-25 mg kainic acid/kg mouse body mass, 5.3 mg/ml PBS, Tocris Bioscience, Ellisville, Mo., U.S.A.) as described previously (Hartman et al., 2012). Mice were observed continuously in plexiglass cages for the duration of the experiment. Seizure behaviors were scored for 2 h using a modified Racine scale (the highest score in a given 5-min block was used): 0, no seizure; 1, immobility; 2, forelimb and/or tail extension; 3, automatisms; 4, forelimb clonus, rearing, and/or falling; 5, repetition of stage 4; 6, tonic-clonic seizures; and 7, death (Hartman et al., 2010). As the mouse behaviors only occur intermittently, the highest seizure score achieved in a 5 min epoch was recorded.
Probit analyses (used in the 6 Hz test to determine the current where half the mice experienced any seizure behavior, or CC50, was performed using Minitab 16 (State College, Pa., U.S.A.). The level of significance in the 6 Hz test was 0.05. T-tests and one-way ANOVAs were performed using GraphPad Prism 4 (LaJolla, Calif., U.S.A.). In the kainic acid test, one-way ANOVAs were performed for multiple comparisons of 3 treatment groups. When 2 groups were compared in the kainic acid test, the level of significance was 0.01 (because 3-4 parameters were measured simultaneously, this represents a Bonferroni correction of a typical level of significance of 0.05).

6 Hz-induced seizures = assay: 6 Hz test; format: in vivo, mice; settings: D-leucine 1.5% w/v in drinking water for 13 days
Experimental: Male NIH Swiss mice (NCI, Frederick, Md., U.S.A.) aged 3-4 weeks were acclimatized to the animal care facility for 1-5 days and housed four per cage. All mice were fed unrestricted normal rodent chow (Teklad Global 2018SX, Madison, Wis., U.S.A.). Only in experiments lasting 2 weeks, mice were fasted overnight before the D-leucine was administered in drinking water. At 5 weeks of age, mice were injected intraperitoneally with D-leucine 3 mg/kg (“low dose”) or 300 mg/kg (“high dose”) body weight (Sigma-Aldrich, St. Louis, Mo., U.S.A.) or given D-leucine in drinking water (1.5% w/v) for 13 days after an initial overnight fast. […] Probit analyses (used in the 6 Hz test to determine the current where half the mice experienced any seizure behavior, or CC50, was performed using Minitab 16 (State College, Pa., U.S.A.). The level of significance in the 6 Hz test was 0.05. T-tests and one-way ANOVAs were performed using GraphPad Prism 4 (LaJolla, Calif., U.S.A.). In the kainic acid test, one-way ANOVAs were performed for multiple comparisons of 3 treatment groups. When 2 groups were compared in the kainic acid test, the level of significance was 0.01 (because 3-4 parameters were measured simultaneously, this represents a Bonferroni correction of a typical level of significance of 0.05).

AMPA receptor = settings: hippocampal neurons; Gong et al., 2007; cited from earlier work
[3] = tested on: picrotoxin-induced seizures; settings: rats; Skeie et al., 1994; cited from earlier work
[4] = tested on: hexafluorodiethyl ether seizures; settings: Gallagher, 1969; cited from earlier work
[5] = tested on: maximal electroshock-induced seizures; settings: literature (Peterson, 1991; Kalinichev et al., 2010); cited from earlier work
amygdala-kindled rats = settings: dose-dependent, Loscher et al., 1994; cited from earlier work
[6] = tested on: GAERS (Genetic Absence Epilepsy Rats from Strasbourg) Wistar rats; settings: intracerebroventricular or intrathalamic routes; Koerner et al., 1996; cited from earlier work
[7] = CBIO 10 mg/kg 15 min after kainic acid
[8] = pretreatment, CBIO 10 mg/kg three hours prior to kainic acid
[9] = D-leucine 300 mg/kg 15 min after kainic acid (after seizure onset)
[10] = pretreatment, D-leucine 3 mg/kg i.p. 3 h before kainic acid (23.5 mg/kg)
[11] = pretreatment, D-leucine 300 mg/kg i.p. 3 h before kainic acid (23.5 mg/kg)
[12] = D-serine 3 mg/kg 15 min after kainic acid
[13] = D-serine 300 mg/kg 15 min after kainic acid

In the case of CC(C)CC(=O)C(=O)O [α-ketoisocaproic acid], the “activity in the PTZ test” value [1] is listed as “not active”.

For Oc1noc2ccc(Cl)cc12 [CBIO, 5-chloro-benzo[d]isoxazol-3-ol], the maximum seizure score [2, 7] was “no effect”, the mean seizure score [2, 7] was “decrease” and the “number of epochs with a seizure stage ≧2” value [2, 7] was “decrease”. For the same molecule, the “latency to seizure stage ≧2” value [2, 8] was “no effect”, the maximum seizure score [2, 8] was “no effect” and the mean seizure score [2, 8] was “decreased”. The “number of epochs with a seizure stage ≧2” value [2, 8] was “decreased”.

With CC(C)C[C@@H](N)C(=O)O [D-leucine] the “CC50 (current where half of mice had a convulsion)” value (6 Hz-induced seizures) was “increased”, the “protection against seizures induced by kainic acid” value ([2]; D-leucine 3 mg/kg 15 min after the onset of seizures (FIGS. 4C-4D)) was “protects against seizures” and the “seizure outcome compared with diazepam (10 mg/kg)” value ([2]; D-leucine 3 mg/kg 20 min after kainic acid (25 mg/kg)) was “not inferior to treatment with diazepam”. The mean seizure score [2, 9] was “no effect”, the “number of epochs with a seizure score ≧2” value [2, 9] was “decreased” and the maximum seizure score ([2]; D-leucine 300 mg/kg 15 min after kainic acid (after seizure onset), trend noted) was “no effect”. For the same molecule, the protection against seizures ([2]; pretreatment, D-leucine 0.3 mg/kg 3 h before kainic acid (23.5 mg/kg)) was “did not protect against seizures”, the mean seizure score [2, 10] was “decreased” and the “number of epochs with a seizure stage ≧2” value [2, 10] was “decreased”. For the same molecule, the maximum seizure score ([2]; pretreatment, D-leucine 0.3, 3 or 300 mg/kg vs water, 3 h before kainic acid) was “no difference between groups”, the “latency to onset of seizure stage ≧2” value [2, 11] was “prolonged” and the mean seizure score [2, 11] was “decreased”. The “number of epochs with a seizure stage ≧2” value [2, 11] was “decreased” and the “kainic acid-induced AMPA receptor-mediated current” value (AMPA receptor) was “inactive”.

For CC(C)C[C@H](N)C(=O)O [L-leucine], the “protection against picrotoxin-induced seizures” value [3] is listed as “protects”, the “protection against pentylenetetrazol-induced seizures” value ([1]; rats) is listed as “protects” and the “protection against hexafluorodiethyl ether seizures” value [4] is listed as “not”.

In the case of N[C@H](CO)C(=O)O [D-serine], the maximum seizure score [2, 12] is reported as “decrease”, the mean seizure score [2, 12] is reported as “decrease” and the “number of epochs with a seizure stage ≧2” value [2, 12] is reported as “decrease”. For the same molecule, the maximum seizure score [2, 13] was “no effect”, the mean seizure score [2, 13] was “decrease” and the “number of epochs with a seizure stage ≧2” value [2, 13] was “decrease”. For the same molecule, the “protection against maximal electroshock-induced seizures” value [5] was “weak but statistically significant protection”, the after discharge thresholds (amygdala-kindled rats) was “increases” and the “effect on spike wave discharges” value [6] was “no effect”. For the same molecule, the “kainic acid-induced AMPA receptor-mediated current” value (AMPA receptor) was “inhibits”.
